Assay results: publication PMC6364417, “Kinase inhibitor library screening identifies synergistic drug combinations effective in sensitive and resistant melanoma cells” (Journal of Experimental & Clinical Cancer Research : CR, 2019)
pIC50: −log10 of the molar value. Like-named read-outs stand apart in the source and are kept apart here. Each block holds one molecule with its values, some of them ahead of it.

Experiments:
[1] = system: A375-GP cells (Dabrafenib-resistant); experiment: Dose-response curves and IC50, PrestoBlue cell viability, 72 h; format: cell-based, human; settings: n.e. = did not suppress growth below 50% in the tested concentration range, read-out: Half-maximal inhibitory concentration value (IC50), Mean
A375 cells = experiment: Synergy determination with the Chou-Talalay method (CompuSyn), cell viability 72 h; format: cell-based, human; settings: 72 h cell viability, Chou-Talalay / Synergyfinder
Experimental: The Chou-Talalay method to determine possible synergistic effects of selected kinase inhibitor combinations was used as described in [19]. […] Cells were treated with either single inhibitors or combinations thereof at indicated amounts in technical triplicates. The amounts were pre-determined from each inhibitor’s IC50 value and inhibitors were assayed in a defined dilution series and at constant ratio when combined. […] Combination Index (CI) values showing either synergy (< 1) or antagonism (> 1) were calculated with the CompuSyn software (ComboSyn, Inc).

[2] = system: A375-XP cells (Vemurafenib-resistant); experiment: Kinase inhibitor library screening, PrestoBlue cell viability, 1 or 10 μM, 72 h
[3] = system: A375-GP cells (Dabrafenib-resistant); experiment: as above; settings: for cell viability (kinase inhibitor library screening): in %
[4] = system: 501Mel-GP cells (Dabrafenib-resistant); experiment: as above
501Mel cells (parental) = experiment: as above
In short: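 Parental cells and Vemurafenib-resistant (XP) or Dabrafenib-resistant (GP) derivatives were treated with library kinase inhibitors at 1 and 10 μM for 72 h. Viability measured by PrestoBlue and expressed as % of untreated cells, at least in duplicate.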

[5] = system: 501Mel-XP cells (Vemurafenib-resistant); experiment: as above
IGR37 cells (parental) = experiment: as above
[6] = system: IGR37-GP cells (Dabrafenib-resistant); experiment: as above
A375 cells (parental) [7] = experiment: as above; settings: for cell viability (kinase inhibitor library screening): in %
[8] = system: IGR37-XP cells (Vemurafenib-resistant); experiment: as above
A375 cells (parental) [9] = experiment: Dose-response curves and IC50, PrestoBlue cell viability, 72 h; format: cell-based, human; settings: read-out: Half-maximal inhibitory concentration value (IC50), Mean
[10] = system: A375-XP cells (Vemurafenib-resistant); experiment: as above; format: cell-based, human; settings: n.e. = did not suppress growth below 50% in the tested concentration range, read-out: Half-maximal inhibitory concentration value (IC50), Mean
[11] = n.e. = did not suppress growth below 50% in the tested concentration range

Structure (SMILES): O=C(Nc1cc(C(F)(F)F)cc(C(F)(F)F)c1)c1cc(Cl)ccc1O [IMD 0354, reference compound]
- pIC50 ([1]; Homo sapiens): 6.13
- synergistic effects with the BRAF inhibitors Vemurafenib and/or Dabrafenib (in words) (A375 cells): did not act synergistically
- viability at 1 µM ([2]; Homo sapiens, A-375, 72 h, read-out: cell viability, A375 XP, 1μΜ): 29.7%
- viability at 10 µM ([2]; Homo sapiens, A-375, 72 h, read-out: cell viability, A375 XP, 10μΜ): 4.8%
- viability at 1 µM ([3]; Homo sapiens, A-375, 72 h, read-out: cell viability, A375 GP, 1μΜ): 25.5%
- viability at 10 µM ([3]; Homo sapiens, A-375, 72 h, read-out: cell viability, A375 GP, 10μΜ): 8.1%
- viability at 1 µM ([4]; Homo sapiens, 72 h, read-out: cell viability, 501Mel GP, 1μΜ): 25.5%
- viability at 10 µM ([4]; Homo sapiens, 72 h, read-out: cell viability, 501Mel GP, 10μΜ): -0.276%
- viability at 1 µM (501Mel cells (parental); Homo sapiens, 72 h, read-out: cell viability, 501Mel Parental, 1μΜ): 34.2%
- viability at 10 µM (501Mel cells (parental); Homo sapiens, 72 h, read-out: cell viability, 501Mel Parental, 10μΜ): -0.0333%
- viability at 1 µM ([5]; Homo sapiens, 72 h, read-out: cell viability, 501Mel XP, 1μΜ): 26%
- viability at 10 µM ([5]; Homo sapiens, 72 h, read-out: cell viability, 501Mel XP, 10μΜ): -0.369%
- viability at 1 µM (IGR37 cells (parental); Homo sapiens, IGR-37, 72 h, read-out: cell viability, IGR37 Parental, 1μΜ): 59.5%
- viability at 10 µM (IGR37 cells (parental); Homo sapiens, IGR-37, 72 h, read-out: cell viability, IGR37 Parental, 10μΜ): 2.8%
- viability at 1 µM ([6]; Homo sapiens, IGR-37, 72 h, read-out: cell viability, IGR37 GP, 1μΜ): 46.7%
- viability at 10 µM ([6]; Homo sapiens, IGR-37, 72 h, read-out: cell viability, IGR37 GP, 10μΜ): 15.4%
- viability at 1 µM (A375 cells (parental) [7]; Homo sapiens, A-375, 72 h, read-out: cell viability, A375 Parental, 1μΜ): 23.1%
- viability at 10 µM (A375 cells (parental) [7]; Homo sapiens, A-375, 72 h, read-out: cell viability, A375 Parental, 10μΜ): 6.5%
- viability at 1 µM ([8]; Homo sapiens, IGR-37, 72 h, read-out: cell viability, IGR37 XP, 1μΜ): 41.2%
- viability at 10 µM ([8]; Homo sapiens, IGR-37, 72 h, read-out: cell viability, IGR37 XP, 10μΜ): 4.1%
- pIC50 (A375 cells (parental) [9]; Homo sapiens, A-375, n.e. = did not suppress growth below 50% in the tested concentration range): 6.19
- pIC50 ([10]; Homo sapiens): 6.00

- pIC50 [1]: 7.43
- pIC50 [10]: 7.34
Structure (SMILES): O=C(Cc1ccc(-c2ccc(OCCN3CCOCC3)cc2)cn1)NCc1ccccc1 [KX2-391, reference compound]
- synergistic effects with the BRAF inhibitors Vemurafenib and/or Dabrafenib (in words) (A375 cells): did not act synergistically
- cell viability (kinase inhibitor library screening) ([2]; A375 XP, 1μΜ, in %): 21.2
- cell viability (kinase inhibitor library screening) ([3]; A375 GP, 1μΜ): 22.8
- cell viability (kinase inhibitor library screening) ([3]; A375 GP, 10μΜ): 19.7
- cell viability (kinase inhibitor library screening) ([4]; 501Mel GP, 1μΜ, in %): 15.9
- cell viability (kinase inhibitor library screening) ([4]; 501Mel GP, 10μΜ, in %): 19.8
- cell viability (kinase inhibitor library screening) (501Mel cells (parental); 501Mel Parental, 1μΜ, in %): 16.9
- cell viability (kinase inhibitor library screening) (501Mel cells (parental); 501Mel Parental, 10μΜ, in %): 24.4
- cell viability (kinase inhibitor library screening) ([5]; 501Mel XP, 1μΜ, in %): 9.9
- cell viability (kinase inhibitor library screening) ([5]; 501Mel XP, 10μΜ, in %): 14.1
- cell viability (kinase inhibitor library screening) (IGR37 cells (parental); IGR37 Parental, 1μΜ, in %): 11.7
- cell viability (kinase inhibitor library screening) (IGR37 cells (parental); IGR37 Parental, 10μΜ, in %): 19.5
- cell viability (kinase inhibitor library screening) ([6]; IGR37 GP, 1μΜ, in %): 70.8
- cell viability (kinase inhibitor library screening) ([6]; IGR37 GP, 10μΜ, in %): 68.8
- cell viability (kinase inhibitor library screening) (A375 cells (parental) [7]; A375 Parental, 1μΜ): 20.3
- cell viability (kinase inhibitor library screening) (A375 cells (parental) [7]; A375 Parental, 10μΜ): 16.5
- cell viability (kinase inhibitor library screening) ([8]; IGR37 XP, 1μΜ, in %): 45.0
- cell viability (kinase inhibitor library screening) ([8]; IGR37 XP, 10μΜ, in %): 36.6
- pIC50 (A375 cells (parental) [9]; [11]): 7.38

- pIC50 [1]: 7.35
- pIC50 [10]: 7.28
Structure (SMILES): Cc1ccc([N+](=O)[O-])cc1S(=O)(=O)N(C)/N=C/c1cnc2ccc(Br)cn12 [PIK-75, reference compound]
- synergistic effects with the BRAF inhibitors Vemurafenib and/or Dabrafenib (in words) (A375 cells): synergistic effects only with Dabrafenib
- Cell viability in kinase inhibitor library screening, A375 XP, 1μΜ ([2]; A375 XP, 1μΜ, 72 h): 5.1
- Cell viability in kinase inhibitor library screening, A375 XP, 10μΜ ([2]; A375 XP, 10μΜ, 72 h): 2.3
- Cell viability in kinase inhibitor library screening, A375 GP, 1μΜ ([3]; A375 GP, 1μΜ, 72 h): 4.0
- Cell viability in kinase inhibitor library screening, A375 GP, 10μΜ ([3]; A375 GP, 10μΜ, 72 h): 1.2
- Cell viability in kinase inhibitor library screening, 501Mel GP, 1μΜ ([4]; 501Mel GP, 1μΜ, 72 h, in %): 0.164
- Cell viability in kinase inhibitor library screening, 501Mel GP, 10μΜ ([4]; 501Mel GP, 10μΜ, 72 h, in %): 0.3
- Cell viability in kinase inhibitor library screening, 501Mel Parental, 1μΜ (501Mel cells (parental); 501Mel Parental, 1μΜ, 72 h, in %): 0.758
- Cell viability in kinase inhibitor library screening, 501Mel Parental, 10μΜ (501Mel cells (parental); 501Mel Parental, 10μΜ, 72 h, in %): 0.0735
- Cell viability in kinase inhibitor library screening, 501Mel XP, 1μΜ ([5]; 501Mel XP, 1μΜ, 72 h, in %): -0.0746
- Cell viability in kinase inhibitor library screening, 501Mel XP, 10μΜ ([5]; 501Mel XP, 10μΜ, 72 h, in %): -0.125
- Cell viability in kinase inhibitor library screening, IGR37 Parental, 1μΜ (IGR37 cells (parental); IGR37 Parental, 1μΜ, 72 h, in %): 1.2
- Cell viability in kinase inhibitor library screening, IGR37 Parental, 10μΜ (IGR37 cells (parental); IGR37 Parental, 10μΜ, 72 h, in %): 0.6
- Cell viability in kinase inhibitor library screening, IGR37 GP, 10μΜ ([6]; IGR37 GP, 10μΜ, 72 h): 1.1%
- Cell viability in kinase inhibitor library screening, IGR37 GP, 1μΜ ([6]; IGR37 GP, 1μΜ, 72 h, in %): 1.7
- Cell viability in kinase inhibitor library screening, A375 Parental, 10μΜ (A375 cells (parental) [7]; A375 Parental, 10μΜ, 72 h): 1.8
- Cell viability in kinase inhibitor library screening, A375 Parental, 1μΜ (A375 cells (parental) [7]; A375 Parental, 1μΜ, 72 h): 4.1
- Cell viability in kinase inhibitor library screening, IGR37 XP, 10μΜ ([8]; IGR37 XP, 10μΜ, 72 h): 0.7%
- Cell viability in kinase inhibitor library screening, IGR37 XP, 1μΜ ([8]; IGR37 XP, 1μΜ, 72 h, in %): 1.2
- pIC50 (A375 cells (parental) [9]; [11]): 7.26
